What follows are molecules tested against Lethal factor protease (Bacillus anthracis, UniProt P15917) (assay: biochemical). Conditions: LF (FRET) Ki^app.
Sequence of Lethal factor protease (P15917 34-809 limits assumed): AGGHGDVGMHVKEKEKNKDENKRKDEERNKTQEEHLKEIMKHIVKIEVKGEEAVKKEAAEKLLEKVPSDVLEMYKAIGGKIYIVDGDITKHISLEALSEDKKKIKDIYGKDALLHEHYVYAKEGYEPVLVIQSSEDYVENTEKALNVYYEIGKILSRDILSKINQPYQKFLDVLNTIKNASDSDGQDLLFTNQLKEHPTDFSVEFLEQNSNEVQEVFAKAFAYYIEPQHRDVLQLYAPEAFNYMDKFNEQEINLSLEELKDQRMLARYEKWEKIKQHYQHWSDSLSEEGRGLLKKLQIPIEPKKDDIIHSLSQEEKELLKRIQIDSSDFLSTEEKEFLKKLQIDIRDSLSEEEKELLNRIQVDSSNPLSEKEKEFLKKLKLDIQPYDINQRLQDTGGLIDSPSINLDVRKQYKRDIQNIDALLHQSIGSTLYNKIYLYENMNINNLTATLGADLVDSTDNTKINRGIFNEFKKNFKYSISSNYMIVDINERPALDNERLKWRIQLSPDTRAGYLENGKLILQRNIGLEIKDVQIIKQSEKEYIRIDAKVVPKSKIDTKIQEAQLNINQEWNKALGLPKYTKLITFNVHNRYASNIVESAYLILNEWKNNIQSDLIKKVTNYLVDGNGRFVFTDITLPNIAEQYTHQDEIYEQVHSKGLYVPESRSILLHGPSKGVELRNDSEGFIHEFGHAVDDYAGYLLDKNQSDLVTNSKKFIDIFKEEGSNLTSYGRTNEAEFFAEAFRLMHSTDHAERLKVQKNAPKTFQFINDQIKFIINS

Row | SMILES | Ki [µM]
1 | O=C(COc1ccc(Cl)cc1)NO [Compound 168129, 2-(4-chlorophenoxy)-N-hydroxyacetamide] | 83.9
2 | CCCCC(C(=O)NO)[S+]([O-])c1ccc(F)c(C)c1 (single isomer, unassigned) [Compound 167351, syn-2-(4-Fluoro-3-methyl-benzenesulfinyl)-hexanoic acid hydroxyamide] | 10.3
3 | O=C(NO)[C@@H](CCCCOCc1ccccc1)Oc1ccc(F)c(Cl)c1 [Compound 168187] | 1.07
4 | O=C(COc1ccc(F)c(Cl)c1)NO [Compound 168127, 2-(3-chloro-4-fluorophenoxy)-N-hydroxyacetamide] | 31.2
5 | Cc1cc(O[C@H](CCCCNCc2cccs2)C(=O)NO)ccc1F [Compound 168177, (R)-2-(4-fluoro-3-methylphenoxy)-N-hydroxy-6-(thiophen-2-ylmethylamino)hexanamide] | 0.21
6 | CCCCC(C(=O)NO)S(=O)(=O)c1ccc(F)c(C)c1 (stereo not shown) [Compound 167304, 2-(4-Fluoro-3-methyl-benzenesulfonyl)-hexanoic acid hydroxyamide] | 30
7 | CCCCC(Sc1ccc(F)c(C)c1)C(=O)NO (stereo not shown) [Compound 167303, 2-(4-Fluoro-3-methyl-phenylsulfanyl)-hexanoic acid hydroxyamide] | 2.5
8 | CCCCC(C(=O)NO)[S+]([O-])c1ccc(F)c(C)c1 (stereo not shown) [Compound 167316, 2-(4-Fluoro-3-methyl-benzenesulfinyl)-hexanoic acid hydroxyamide] | 18
9 | CCCCC(Oc1ccc(F)c(C)c1)C(=O)NO (stereo not shown) [Compound 167163, 2-(4-Fluoro-3-methyl-phenoxy)-hexanoic acid hydroxyamide] | 5.5
10 | Cc1cc(CNCCCC[C@@H](Oc2ccc(F)c(C)c2)C(=O)NO)ccc1F [Compound 168097, (R)-6-(4-Fluoro-3-methylbenzylamino)-2-(4-fluoro-3-methylphenoxy)-N-hydroxyhexanamide] | 0.21
11 | Cc1cc(CNCCCC[C@@H](Oc2cc(C)c(F)c(C)c2)C(=O)NO)ccc1F [Compound 168100, (R)-2-(4-fluoro-3,5-dimethylphenoxy)-6-(4-fluoro-3-methylbenzylamino)-N-hydroxyhexanamide] | 0.58
12 | Cc1cc(O[C@H](CCO)C(=O)NO)ccc1F [Compound 168093, (R)-2-(4-fluoro-3-methylphenoxy)-N,4-dihydroxybutanamide] | 23.1
13 | Cc1cc(COCCCC[C@@H](Oc2cc(C)c(F)c(C)c2)C(=O)NO)ccc1F [Compound 168135, (R)-2-(4-fluoro-3,5-dimethylphenoxy)-6-(4-fluoro-3-methylbenzyloxy)-N-hydroxyhexanamide] | 3.03
14 | Cc1cc(O[C@H](CCCCO)C(=O)NO)ccc1F [Compound 168176, (R)-2-(4-fluoro-3-methylphenoxy)-N,6-dihydroxyhexanamide] | 1.78
15 | Cc1cc(O[C@H](C/C=C/COCc2ccccc2)C(=O)NO)ccc1F [Compound 168185] | 0.77
16 | Cc1cc(CCCN(C)CC[C@@H](Oc2ccc(F)c(C)c2)C(=O)NO)ccc1F [Compound 168142, (R)-2-(4-fluoro-3-methylphenoxy)-4-((3-(4-fluoro-3-methylphenyl)propyl)(methyl)amino)-N-hydroxybutanamide] | 1.12
17 | CCCCC(C(=O)NO)[S+]([O-])c1ccc(F)c(C)c1 (single isomer, unassigned) [Compound 167352, anti-2-(4-Fluoro-3-methyl-benzenesulfinyl)-hexanoic acid hydroxyamide] | 67
18 | Cc1cc(OCC(=O)NO)ccc1F [Compound 167182, 2-(4-Fluoro-3-methyl-phenoxy)-N-hydroxy-acetamide] | 29.2
19 | Cc1cc(O[C@H](CCCCNCC2CC3CCC2C3)C(=O)NO)ccc1F (stereo partly shown) [Compound 168183] | 0.17
20 | O=C(COc1ccc(F)cc1)NO [Compound 168128, 2-(4-fluorophenoxy)-N-hydroxyacetamide] | 61.1
21 | Cc1cc(O[C@H](CCN2CCC[C@@H](CN3CCCCC3)C2)C(=O)NO)ccc1F [Compound 168143, (R)-2-(4-fluoro-3-methylphenoxy)-N-hydroxy-4-((S)-3-(piperidin-1-ylmethyl)piperidin-1-yl)butanamide] | 1.67
22 | O=C(COc1ccc(F)c(F)c1)NO [Compound 168130, 2-(3,4-difluorophenoxy)-N-hydroxyacetamide] | 26.2
23 | CCC[C@@H](Oc1ccc(F)c(C)c1)C(=O)NO [Compound 168090, (R)-2-(4-Fluoro-3-methyl-phenoxy)-pentanoic acid hydroxyamide] | 3.7
24 | Cc1cc(OCC(=O)NO)cc(C)c1F [Compound 168115, 2-(4-Fluoro-3,5-dimethyl-phenoxy)-N-hydroxy-acetamide] | 2.52
25 | Cc1cc(O[C@H](CCCCNCc2ccco2)C(=O)NO)ccc1F [Compound 168184] | 0.75
26 | Cc1cc(COCCCC[C@@H](Oc2ccc(F)c(C)c2)C(=O)NO)ccc1F [Compound 168113, (R)-6-(4-Fluoro-3-methylbenzyloxy)-2-(4-fluoro-3-methylphenoxy)-N-hydroxyhexanamide] | 0.54
27 | O=C(NO)[C@@H](C/C=C\COCc1ccccc1)Oc1ccc(F)c(Cl)c1 [Compound 168160, (R,Z)-6-(benzyloxy)-2-(3-chloro-4-fluorophenoxy)-N-hydroxyhex-4-enamide] | 1.25
28 | Cc1cc(O[C@H](CCCCNCc2cccc(-c3ccc(F)cc3)c2)C(=O)NO)ccc1F [Compound 168178, (R)-2-(4-fluoro-3-methylphenoxy)-6-((4′-fluorobiphenyl-3-yl)methylamino)-N-hydroxyhexanamide] | 0.13
